In publication PMC10819888, “Benzimidazole-Based Derivatives as Apoptotic Antiproliferative Agents: Design, Synthesis, Docking, and Mechanistic Studies” (Molecules, 2024):

Columns and labels:
Experiment in all cases: NCI-60 one-dose assay
Type in all cases: cell-based
[1] = system: 786-0; details: Homo sapiens, 786-0 (Renal Cancer), read-out: Cell Inhibition Percent
Protocol: (§1) The final compounds were submitted to the National Cancer Institute, Bethesda, USA, for screening in vitro for anti-cancer. […] compounds, 4a–j, 5, and 6, were selected according to the Development Therapeutic Program (DTP) protocol. The selected compounds were evaluated for their in vitro cytotoxic activity against a panel of sixty cancer cell lines (NCI-60 cell line panel) derived from six cell lines panel of leukemia, nine cell lines of lung cancer, six cell lines of CNS cancer, seven cell lines of colon cancer, eight cell lines of melanoma, six cell lines of ovarian cancer, eight cell lines of renal cancer, two cell lines of prostate cancer, and eight cell lines of breast cancer, representing the full nine human systems as leukemia, melanoma, and cancers of the lung, colon, brain, breast, ovary, kidney, and prostate.
(§2) The selected compounds 4a–j, 5, and 6 were tested at a single concentration of 10 µM. The screening results for the selected compounds are illustrated in Table 1.
(§3) The NCI anti-cancer screening methodology has been described in detail elsewhere (http://www.dtp.nci.nih.gov, accessed on 20 February 2021). Following the Drug Evaluation Branch protocol, National Cancer Institute, Bethesda, USA, a primary anti-cancer assay was performed on approximately 60 human tumor cell line panels derived from nine neoplastic diseases.

[2] = system: CAKI-1; details: Homo sapiens, CAKI-1 (Renal Cancer), read-out: Cell Inhibition Percent
Protocol: as §1, §2, §3

[3] = system: CCRF-CEM; details: Homo sapiens, CCRF-CEM (Leukemia), read-out: Cell Inhibition Percent
Protocol: as §1, §2, §3

[4] = system: COLO 205; details: Homo sapiens, COLO 205 (Colon Cancer), read-out: Cell Inhibition Percent
Protocol: as §1, §2, §3

[5] = system: HCC-2998; details: Homo sapiens, HCC-2998 (Colon Cancer), read-out: Cell Inhibition Percent
Protocol: as §1, §2, §3

[6] = system: HCT-116; details: Homo sapiens, HCT-116 (Colon Cancer), read-out: Cell Inhibition Percent
Protocol: as §1, §2, §3

[7] = system: HCT-15; details: Homo sapiens, HCT-15 (Colon Cancer), read-out: Cell Inhibition Percent
Protocol: as §1, §2, §3

[8] = system: HOP-92; details: Homo sapiens, HOP-92 (Non-Small Cell Lung Cancer), read-out: Cell Inhibition Percent
Protocol: as §1, §2, §3

[9] = system: IGROV1; details: Homo sapiens, IGROV-1, IGROV1 (ovarian cancer), read-out: Cell Inhibition Percent
Protocol: as §1, §2, §3

[10] = system: K-562; details: Homo sapiens, K562, K-562 (Leukemia), read-out: Cell Inhibition Percent
Protocol: as §1, §2, §3

[11] = system: KM12; details: Homo sapiens, KM12 (Colon Cancer), read-out: Cell Inhibition Percent
Protocol: as §1, §2, §3

[12] = system: MDA-MB-435; details: Homo sapiens, MDA-MB-435 (Melanoma), read-out: Cell Inhibition Percent
Protocol: as §1, §2, §3

[13] = system: MDA-MB-468; details: Homo sapiens, MDA-MB-468 (Breast Cancer), read-out: Cell Inhibition Percent
Protocol: as §1, §2, §3

[14] = system: NCI-H322M; details: Homo sapiens, NCI-H322M (Non-Small Cell Lung Cancer), read-out: Cell Inhibition Percent
Protocol: as §1, §2, §3

[15] = system: OVCAR-3; details: Homo sapiens, OVCAR-3 (ovarian cancer), read-out: Cell Inhibition Percent
Protocol: as §1, §2, §3

[16] = system: OVCAR-4; details: Homo sapiens, OVCAR-4 (ovarian cancer), read-out: Cell Inhibition Percent
Protocol: as §1, §2, §3

[17] = system: OVCAR-5; details: Homo sapiens, OVCAR-5 (ovarian cancer), read-out: Cell Inhibition Percent
Protocol: as §1, §2, §3

[18] = system: OVCAR-8; details: Homo sapiens, OVCAR-8 (ovarian cancer), read-out: Cell Inhibition Percent
Protocol: as §1, §2, §3

[19] = system: PC-3; details: Homo sapiens, PC-3 (Prostate Cancer), read-out: Cell Inhibition Percent
Protocol: as §1, §2, §3

[20] = system: RPMI-8226; details: Homo sapiens, RPMI-8226 (Leukemia), read-out: Cell Inhibition Percent
Protocol: as §1, §2, §3

[21] = system: RXF 393; details: Homo sapiens, RXF 393 (Renal Cancer), read-out: Cell Inhibition Percent
Protocol: as §1, §2, §3

[22] = system: SF-295; details: Homo sapiens, SF-295 (CNS cancer), read-out: Cell Inhibition Percent
Protocol: as §1, §2, §3

[23] = system: SF-539; details: Homo sapiens, SF-539 (CNS cancer), read-out: Cell Inhibition Percent
Protocol: as §1, §2, §3

[24] = system: SK-MEL-28; details: Homo sapiens, SK-MEL-28 (Melanoma), read-out: Cell Inhibition Percent
Protocol: as §1, §2, §3

[25] = system: SK-OV-3; details: Homo sapiens, SK-OV-3 (ovarian cancer), read-out: Cell Inhibition Percent
Protocol: as §1, §2, §3

[26] = system: SNB-75; details: Homo sapiens, SNB-75 (CNS cancer), read-out: Cell Inhibition Percent
Protocol: as §1, §2, §3

[27] = system: SR; details: Homo sapiens, SR (Leukemia), read-out: Cell Inhibition Percent
Protocol: as §1, §2, §3

[28] = system: U251; details: Homo sapiens, U-251, U251 (CNS cancer), read-out: Cell Inhibition Percent
Protocol: as §1, §2, §3

[29] = system: UACC-257; details: Homo sapiens, UACC-257 (Melanoma), read-out: Cell Inhibition Percent
Protocol: as §1, §2, §3

[30] = system: UACC-62; details: Homo sapiens, UACC-62 (Melanoma), read-out: Cell Inhibition Percent
Protocol: as §1, §2, §3

[31] = system: UO-31; details: Homo sapiens, UO-31 (Renal Cancer), read-out: Cell Inhibition Percent
Protocol: as §1, §2, §3

Row | Compound | inhibition at 10 µM [1] [%] | inhibition at 10 µM [2] [%] | inhibition at 10 µM [3] [%] | inhibition at 10 µM [4] [%] | inhibition at 10 µM [5] [%] | inhibition at 10 µM [6] [%] | inhibition at 10 µM [7] [%] | inhibition at 10 µM [8] [%] | inhibition at 10 µM [9] [%] | inhibition at 10 µM [10] [%] | inhibition at 10 µM [11] [%] | inhibition at 10 µM [12] [%] | inhibition at 10 µM [13] [%] | inhibition at 10 µM [14] [%] | inhibition at 10 µM [15] [%] | inhibition at 10 µM [16] [%] | inhibition at 10 µM [17] [%] | inhibition at 10 µM [18] [%] | inhibition at 10 µM [19] [%] | inhibition at 10 µM [20] [%] | further results
1 | O=C(NN=Cc1ccc([N+](=O)[O-])cc1)c1ccc2[nH]c(-c3ccc(Cl)cc3)nc2c1 [Compound 4c, N′-(4-Nitrobenzylidene)-2-(4-chlorophenyl)-1H-benzimidazole-5-carbohydrazide] | 51 | 57.2 | 90.1 | 97.7 | 85.1 | 85.4 | 70.1 | 40.3 | 80.9 | 90.3 | 87 | 52.4 | 139 | 29.9 | 88.7 | 77 | 46.8 | 78.4 | 78.6 | 89.2 | inhibition at 10 µM [21]: 68.4%; inhibition at 10 µM [22]: 78.3%; inhibition at 10 µM [23]: 58.3%; inhibition at 10 µM [24]: 54.6%; inhibition at 10 µM [25]: 39.5%; inhibition at 10 µM [26]: 30.7%; inhibition at 10 µM [27]: 108%; inhibition at 10 µM [28]: 77.7%; inhibition at 10 µM [29]: 74.9%; inhibition at 10 µM [30]: 56.4%; inhibition at 10 µM [31]: 57.4%
2 | O=C(NN=Cc1ccc(F)cc1)c1ccc2[nH]c(-c3ccc(Cl)cc3)nc2c1 [Compound 4d, N′-(4-Fluorobenzylidene)-2-(4-chlorophenyl)-1H-benzimidazole-5-carbohydrazide] | 87.8 | 15.1 | 78.6 | 58.7 | 21 | 51.4 | 33.2 | 15.4 | 59.8 | 61.2 | 35.1 | 6.12 | 23.9 | 22.4 | 29.3 | 63.6 | 10.8 | 48.7 | 53.2 | 32.5 | inhibition at 10 µM [21]: 22.6%; inhibition at 10 µM [22]: 68.7%; inhibition at 10 µM [23]: 12%; inhibition at 10 µM [24]: 28.1%; inhibition at 10 µM [25]: 1.74%; inhibition at 10 µM [26]: 2.77%; inhibition at 10 µM [27]: 79.3%; inhibition at 10 µM [28]: 98.4%; inhibition at 10 µM [29]: 0%; inhibition at 10 µM [30]: 11.8%; inhibition at 10 µM [31]: 24.6%
3 | CCNC(=S)NNC(=O)c1ccc2[nH]c(-c3ccc(Cl)cc3)nc2c1 [Compound 5] | 0 | 17.1 | 86.9 | 0 | 5.54 | 0 | 5.9 | 1.09 | 14.3 | 88.4 | 7.97 | 0.91 | 0 | 3.36 | 0 | 5.13 | 3.26 | 6.74 | 7.83 | 95.8 | inhibition at 10 µM [21]: 7.61%; inhibition at 10 µM [23]: 12.2%; inhibition at 10 µM [24]: 0%; inhibition at 10 µM [25]: 0.37%; inhibition at 10 µM [26]: 7.77%; inhibition at 10 µM [27]: 88.9%; inhibition at 10 µM [28]: 2.36%; inhibition at 10 µM [29]: 0%; inhibition at 10 µM [30]: 1.88%; inhibition at 10 µM [31]: 6.39%
